From patent publication US9890166B2, “Imidazopyrrolidine derivatives and their use in the treatment of disease” (NOVARTIS AG, priority 2013, dated 2018)

Assays:
[1] = target: CREBBP bromodomain (His-CREBBP(1081-1197)) (Homo sapiens (Human), UniProt Q92793); assay: AlphaScreen in-vitro binding assay for CREBBP; settings: single determination or n ≧ 2 independent determinations, read-out: Biochemical IC50 CREBBP
Summary of the method: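 Reactions at 30 °C for 35 min, then Ni-chelate acceptor and streptavidin donor beads in HEPES pH 7.5, NaCl, Tween20, BSA, 60 min at room temperature. Eight-point compound series; IC50 by non-linear regression of percent inhibition.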

[2] = tested on: MV-4-11 cells; assay: Cell growth inhibition assay (CellTiter-Glo), MV-4-11; settings: for GI50: Homo sapiens, MV4-11, read-out: MV-4-11 GI50; for MV-4-11 TGI: MV-4-11 cells, total growth inhibition, CellTiter-Glo;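 as to all read-outs here: cellular ATP luminescence after 4 days, 3-fold dilution series from 10 µM top dose, vehicle (0.1% DMSO) set to 100%, cell-free medium set to −100%, day 0 corrected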
[3] = tested on: K-562 cells; assay: Cell growth inhibition assay (CellTiter-Glo), K-562; settings: for GI50: Homo sapiens, K562, read-out: K-562 GI50; for K-562 TGI: K-562 cells, total growth inhibition, CellTiter-Glo;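 as to all read-outs here: cellular ATP measured by luminescence after 4 days of exposure, 3-fold dilution series from 10 µM, DMSO vehicle-treated cells define 100%, cell-free medium wells −100%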
[4] = target: nuclear BRD4-NUT foci in HCC2494 NUT midline carcinoma cells (Homo sapiens, UniProt O60885); assay: cell-based
[5] = target: BRD2 (His-Brd2(60-472)) (Homo sapiens (Human), UniProt P25440); assay: TR-FRET in-vitro binding assay for BRD2; settings: single determination or n ≧ 2 independent determinations, read-out: Biochemical IC50 BRD2
Summary of the method: (§1)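 TR-FRET binding with His-tagged bromodomain constructs, 8-point compound dilutions from 10 mM DMSO stocks. Reactions incubated 35 min at 30° C in 13.55 μL, read on an EnVision multilabel reader.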

[6] = target: BRD3 (His-Brd3(20-477)) (Homo sapiens (Human), UniProt Q15059); assay: TR-FRET in-vitro binding assay for BRD3; settings: single determination or n ≧ 2 independent determinations, read-out: Biochemical IC50 BRD3
Summary of the method: as §1

[7] = target: BRD4 (His-Brd4(44-477)) (Homo sapiens (Human), UniProt O60885); assay: TR-FRET in-vitro binding assay for BRD4; settings: single determination or n ≧ 2 independent determinations, read-out: Biochemical IC50 BRD4
Summary of the method: as §1

[8] = tested on: THP-1 cells; assay: Cell growth inhibition assay (CellTiter-Glo), THP-1; settings: for GI50: Homo sapiens, THP-1, read-out: THP-1 GI50; for THP-1 TGI: THP-1 cells, total growth inhibition, CellTiter-Glo;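 as to all read-outs here: viability read as cellular ATP luminescence after 4 days, 3-fold dilution series from 10 µM, DMSO vehicle-treated cells taken as 100%, cell-free medium wells as −100%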

Sequence of BRD3 (His-Brd3(20-477)) (Q15059 20-477): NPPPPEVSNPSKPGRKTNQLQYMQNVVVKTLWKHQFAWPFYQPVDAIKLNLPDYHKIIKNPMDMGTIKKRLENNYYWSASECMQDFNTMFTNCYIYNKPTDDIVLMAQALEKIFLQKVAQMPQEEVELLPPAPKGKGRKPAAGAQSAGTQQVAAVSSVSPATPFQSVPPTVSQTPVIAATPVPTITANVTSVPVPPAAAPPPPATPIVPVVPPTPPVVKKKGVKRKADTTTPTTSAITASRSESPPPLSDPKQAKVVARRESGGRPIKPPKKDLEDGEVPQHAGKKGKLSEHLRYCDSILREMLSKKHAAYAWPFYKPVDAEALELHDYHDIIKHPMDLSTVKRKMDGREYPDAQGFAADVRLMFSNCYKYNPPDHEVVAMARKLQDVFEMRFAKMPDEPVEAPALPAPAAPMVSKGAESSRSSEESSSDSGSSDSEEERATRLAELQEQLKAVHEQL
Sequence of CREBBP bromodomain (His-CREBBP(1081-1197)) (Q92793 1081-1197): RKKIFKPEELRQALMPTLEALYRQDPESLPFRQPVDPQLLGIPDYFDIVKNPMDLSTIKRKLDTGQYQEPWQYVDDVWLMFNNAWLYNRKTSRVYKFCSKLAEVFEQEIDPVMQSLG
Sequence of BRD2 (His-Brd2(60-472)) (P25440 60-472): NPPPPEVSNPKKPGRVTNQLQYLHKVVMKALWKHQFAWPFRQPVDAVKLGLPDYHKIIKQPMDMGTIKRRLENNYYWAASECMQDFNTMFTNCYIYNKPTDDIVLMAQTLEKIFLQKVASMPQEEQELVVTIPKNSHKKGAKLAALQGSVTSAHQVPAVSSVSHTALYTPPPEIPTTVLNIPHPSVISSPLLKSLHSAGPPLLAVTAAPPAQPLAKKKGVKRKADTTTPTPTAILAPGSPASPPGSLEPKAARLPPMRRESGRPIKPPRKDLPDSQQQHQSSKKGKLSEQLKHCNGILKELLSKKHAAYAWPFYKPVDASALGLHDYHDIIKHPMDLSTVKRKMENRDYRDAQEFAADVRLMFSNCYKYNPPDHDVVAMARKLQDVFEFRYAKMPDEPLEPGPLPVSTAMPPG

Row | IC50 [1] [µM] | GI50 [2] [nM] | GI50 [3] [nM] | IC50 [4] [nM] | IC50 [5] [nM] | IC50 [6] [nM] | IC50 [7] [nM] | GI50 [8] [nM] | Compound | MV-4-11 TGI [2] [µM] | K-562 TGI [3] [µM] | THP-1 TGI [8] [µM]
1 | 2.7 | 60.1 | 230 | 86.3 | 88 | 88 | 92 | 161 | COc1ccc(-c2nc3c(n2C)C(=O)N(c2cc(C)c(=O)n(C)c2)C3c2ccc(Cl)cc2)cn1 (stereo not shown) [Example 6, 6-(4-chlorophenyl)-5-(1,5-dimethyl-6-oxo-1,6-dihydropyridin-3-yl)-2-(6-methoxypyridin-3-yl)-3-methyl-5,6-dihydropyrrolo[3,4-d]imidazol-4(3H)-one] | 0.102 | >10 | 0.324
2 | 5.7 | 48.5 | 330 | 110 | 41 | 25 | 18 | 90.9 | Cc1cc(N2C(=O)c3nc(C4=CCOC4)n(C(C)C)c3C2c2ccc(Cl)cc2)cn2c(C)nnc12 (stereo not shown) [Example 11, 6-(4-chlorophenyl)-2-(2,5-dihydrofuran-3-yl)-5-(3,8-dimethyl-[1,2,4]triazolo[4,3-a]pyridin-6-yl)-1-isopropyl-5,6-dihydropyrrolo[3,4-d]imidazol-4(1H)-one] | 0.09775 | >10 | 0.2025
3 | 2.3 | 20.4 | 203 | 40.9 | 33 | 15 | 16 | 66 | Cc1cc(N2C(=O)c3nc(C4=CCOCC4)n(C(C)C)c3C2c2ccc(Cl)cc2)cn2c(C)nnc12 (stereo not shown) [Example 14, 6-(4-chlorophenyl)-2-(3,6-dihydro-2H-pyran-4-yl)-5-(3,8-dimethyl-[1,2,4]triazolo[4,3-a]pyridin-6-yl)-1-isopropyl-5,6-dihydropyrrolo[3,4-d]imidazol-4(1H)-one] | 0.0388 | >10 | 0.12
4 | > 37 | 209 | 1720 | 408 | 360 | 480 | 120 | 377 | COc1ncc(-c2nc3c([nH]2)C(c2ccc(Cl)cc2)N(c2cc(OC)c4nnc(C)n4c2)C3=O)c(OC)n1 (stereo not shown) [Example 127, 6-(4-chlorophenyl)-2-(2,4-dimethoxypyrimidin-5-yl)-5-(8-methoxy-3-methyl-[1,2,4]triazolo[4,3-a]pyridin-6-yl)-5,6-dihydropyrrolo[3,4-d]imidazol-4(1H)-one] | 0.317 | >10 | 0.966
5 | > 37 | 271 | 2480 | 710 | 80 | 63 | 35 | 981 | COc1ccc(-c2nc3c(n2C(C)C)C(c2ccc(Cl)cc2)N(c2cc(OC)c4nnc(C)n4c2)C3=O)cn1 (stereo not shown) [Example 52, 6-(4-chlorophenyl)-1-isopropyl-5-(8-methoxy-3-methyl-[1,2,4]triazolo[4,3-a]pyridin-6-yl)-2-(6-methoxypyridin-3-yl)-5,6-dihydropyrrolo[3,4-d]imidazol-4(1H)-one] | 0.409 | >10 | 1.92
6 | 1.5 | 44.6 | 170 | 73.5 | 60 | 48 | 56 | 65.5 | COc1ccc(-c2nc3c(n2C)C(=O)N(c2cc(C)c(=O)n(C)c2)[C@@H]3c2ccc(Cl)cc2)cn1 [Example 7, (R)-6-(4-chlorophenyl)-5-(1,5-dimethyl-6-oxo-1,6-dihydropyridin-3-yl)-2-(6-methoxypyridin-3-yl)-3-methyl-5,6-dihydropyrrolo[3,4-d]imidazol-4(3H)-one] | 0.085 | >10 | 0.111
7 | > 37 | 706 | 7250 | 2800 | 110 | 92 | 56 | 2000 | COc1ccc(-c2nc3c(n2C)C(c2ccc(Cl)cc2)N(c2cc(OC)c4nnc(C)n4c2)C3=O)cn1 (stereo not shown) [Example 55, 6-(4-chlorophenyl)-5-(8-methoxy-3-methyl-[1,2,4]triazolo[4,3-a]pyridin-6-yl)-2-(6-methoxypyridin-3-yl)-1-methyl-5,6-dihydropyrrolo[3,4-d]imidazol-4(1H)-one] | 1.06 | >10 | 4.41
8 | 6.3 | 29.7 | 326 | 180 | 60 | 59 | 45 | 158 | COc1ncc(-c2nc3c(n2C(C)C)C(c2ccc(Cl)cc2)N(c2cc(C)c4nnc(C)n4c2)C3=O)c(OC)n1 (stereo not shown) [Example 10, 6-(4-chlorophenyl)-2-(2,4-dimethoxypyrimidin-5-yl)-5-(3,8-dimethyl-[1,2,4]triazolo[4,3-a]pyridin-6-yl)-1-isopropyl-5,6-dihydropyrrolo[3,4-d]imidazol-4(1H)-one] | 0.0785 | >10 | 0.302
9 | 8.6 | 13.8 | 95.9 | 14.5 | 33 | 15 | 20 | 23.4 | Cc1cc(N2C(=O)c3nc(C)n(C(C)C)c3C2c2ccc(Cl)cc2)cc2c1nnn2C (racemic) [Example 2, 6-(4-chlorophenyl)-5-(3,7-dimethyl-3H-benzo[d][1,2,3]triazol-5-yl)-1-isopropyl-2-methyl-5,6-dihydropyrrolo[3,4-d]imidazol-4(1H)-one] | 0.02865 | >10 | 0.04095
10 | – | 82.7 | 861 | 279 | 140 | 96 | 120 | 195 | Cc1noc(C)c1-c1nc2c(n1C(C)C)C(c1ccc(Cl)cc1)N(c1cc(C)c(=O)n(C)c1)C2=O (stereo not shown) [Example 27, 6-(4-chlorophenyl)-5-(1,5-dimethyl-6-oxo-1,6-dihydropyridin-3-yl)-2-(3,5-dimethylisoxazol-4-yl)-1-isopropyl-5,6-dihydropyrrolo[3,4-d]imidazol-4(1H)-one] | 0.142 | >10 | 0.433
11 | – | 10.3 | 102 | 20.5 | 68 | 66 | 48 | 23.4 | Cc1cc(N2C(=O)c3c(nc(C)n3C3CC3)C2c2ccc(Cl)cc2)cn2c(C)nnc12 (stereo not shown) [Example 115, 6-(4-chlorophenyl)-3-cyclopropyl-5-(3,8-dimethyl-[1,2,4]triazolo[4,3-a]pyridin-6-yl)-2-methyl-5,6-dihydropyrrolo[3,4-d]imidazol-4(3H)-one] | 0.0177 | >10 | 0.0581
12 | 34.9 | 809 | 5290 | 1950 | – | – | – | 2140 | COc1ccc(-c2nc3c([nH]2)C(c2ccc(Cl)cc2)N(c2cc(OC)c4nnc(C)n4c2)C3=O)cn1 (stereo not shown) [Example 125, 6-(4-chlorophenyl)-5-(8-methoxy-3-methyl-[1,2,4]triazolo[4,3-a]pyridin-6-yl)-2-(6-methoxypyridin-3-yl)-5,6-dihydropyrrolo[3,4-d]imidazol-4(1H)-one] | 1.12 | >10 | 3.92
13 | 3.8 | 56.2 | 257 | – | 94 | 39 | 38 | 66.3 | COc1ncc(-c2nc3c([nH]2)C(c2ccc(Cl)cc2)N(c2cc(C)c4nnc(C)n4c2)C3=O)c(OC)n1 (stereo not shown) [Example 124, 6-(4-chlorophenyl)-2-(2,4-dimethoxypyrimidin-5-yl)-5-(3,8-dimethyl-[1,2,4]triazolo[4,3-a]pyridin-6-yl)-5,6-dihydropyrrolo[3,4-d]imidazol-4(1H)-one] | 0.09675 | >10 | 0.1345

Row | Compound | IC50 [1] [µM] | GI50 [2] [nM] | GI50 [3] [nM] | IC50 [4] [nM] | IC50 [5] [nM] | IC50 [6] [nM] | IC50 [7] [nM] | GI50 [8] [nM] | MV-4-11 TGI [2] [µM] | K-562 TGI [3] [µM] | THP-1 TGI [8] [µM]
14 | CC(C)n1c(-c2cnoc2)nc2c1C(c1ccc(Cl)cc1)N(c1ccc(=O)n(C)c1)C2=O (stereo not shown) [Example 19, 6-(4-chlorophenyl)-1-isopropyl-2-(isoxazol-4-yl)-5-(1-methyl-6-oxo-1,6-dihydropyridin-3-yl)-5,6-dihydropyrrolo[3,4-d]imidazol-4(1H)-one] | – | – | – | > 10000 | – | – | 220 | – | – | – | –
